Values of other authors as cited in patent publication US20040105900A1, “Extracts derived from Pueraria mirifica, Butea superba and/or Mucuna collettii and extraction thereof” (CHEIL JEDANG CORPORATION, priority 1999, published 2004).

System: skin of menopausal females
Details: after 6 months of application to the skin

Substance: estrogen
- improvement in the depth of wrinkles: 60%
